TGI and GI50 data for 14 molecules are collected here from PubChem BioAssay (NCI).

Among the test systems are CCRF-CEM leukemia; COLO 205 colon; HCC-2998 colon; HOP-62 NSCLC; MALME-3M melanoma; NCI-H226 lung; NCI-H522 lung; RXF 393 renal; SK-MEL-2 melanoma; SR leukemia.
Common to all, as to experiment: NCI anticancer screen, dose series, 48 h

Each structure is given as a SMILES string.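 Dose response: 5 concentrations. Exposure: 48 h. Format: 96-well plates. Endpoint: linear interpolation; highest concentration if not reached. Here, GI50 denotes the concentration required for 50% inhibition of growth. TGI denotes the concentration required for complete inhibition of growth.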

As for `O=C(NO)C12C3C4C1C1C2C3C41C(=O)NO` (centres undefined), the TGI in the test with CCRF-CEM leukemia, in the test on COLO 205 colon, with HCC-2998 colon, with HOP-62 NSCLC, in the test with MALME-3M melanoma and with NCI-H226 lung was over 100 µM in each case. Moreover, the TGI with NCI-H522 lung, in the test with RXF 393 renal and in the test with SK-MEL-2 melanoma was over 100 µM in each case.

Take `C1=Cc2nc1c(-c1ccncc1)c1ccc([n-]1)c(-c1ccncc1)c1nc(c(-c3ccncc3)c3ccc([n-]3)c2-c2ccncc2)C=C1.[Zn+2]`: the TGI with CCRF-CEM leukemia, with COLO 205 colon, in the test on HCC-2998 colon, in the test with HOP-62 NSCLC, with MALME-3M melanoma and with NCI-H226 lung was over 100 µM throughout. The TGI in the test with NCI-H522 lung and in the test with SK-MEL-2 melanoma was over 100 µM each time.

For `NCCC(O)(P(=O)(O)O)P(=O)(O)O`, the GI50 in the test on CCRF-CEM leukemia is over 100 µM; with COLO 205 colon, over 100 µM; in the test with HCC-2998 colon, over 100 µM; with HOP-62 NSCLC it was over 100 µM; with MALME-3M melanoma, over 100 µM; in the test with NCI-H226 lung, 14.1 µM. Further, the GI50 in the test with NCI-H522 lung was over 100 µM; with SK-MEL-2 melanoma, 4.43 µM; in the test with SR leukemia it was over 100 µM. Moreover, the TGI with CCRF-CEM leukemia was over 100 µM; in the test on COLO 205 colon, over 100 µM; in the test with HCC-2998 colon, over 100 µM; in the test with HOP-62 NSCLC, over 100 µM; in the test with MALME-3M melanoma, over 100 µM; in the test on NCI-H226 lung it was 36.5 µM. Moreover, the TGI in the test on NCI-H522 lung was over 100 µM; in the test with SK-MEL-2 melanoma, 43.8 µM; in the test on SR leukemia, over 100 µM.

With `COC(=O)C(Cl)=C1CC1`, the TGI with CCRF-CEM leukemia was 42.2 µM; in the test with COLO 205 colon it was 38.3 µM; with HCC-2998 colon, over 100 µM; with HOP-62 NSCLC, over 100 µM; with MALME-3M melanoma it was 46.5 µM; in the test with NCI-H226 lung it was over 100 µM. Moreover, the TGI with NCI-H522 lung was 33.9 µM; in the test with RXF 393 renal it was 35.8 µM; with SK-MEL-2 melanoma it was over 100 µM.

Consider `CC1C=CC(=O)C(n2cc(F)c(=O)[nH]c2=O)O1` (centres undefined), for which the TGI with CCRF-CEM leukemia came out at 34.4 µM; in the test with COLO 205 colon, 35.9 µM; with HOP-62 NSCLC, 45.7 µM; with MALME-3M melanoma, 35.5 µM; with RXF 393 renal, 37.8 µM.

On to `Cc1cc(O)cc2c1O[C@@]1(C)CCC3[C@@]4(C)CC[C@H](O)C(C)(C)C4CC[C@@]3(C)[C@H]1C2` (some centres undefined), for which the TGI in the test with CCRF-CEM leukemia was 7.08 µM; with COLO 205 colon, 33.4 µM; in the test with MALME-3M melanoma, 24.1 µM; in the test with NCI-H226 lung, 24.9 µM; in the test on NCI-H522 lung, 21.9 µM; in the test with RXF 393 renal, 13.3 µM.

For `CC(C)(C)C(=O)C1CC(=O)c2ccccc2C1=O` (centres undefined), the TGI with CCRF-CEM leukemia was over 100 µM; in the test with COLO 205 colon it was over 100 µM; in the test with HCC-2998 colon, over 100 µM; in the test with HOP-62 NSCLC, 62.9 µM; in the test with MALME-3M melanoma it was 31.4 µM; in the test with NCI-H226 lung, over 100 µM. The values for the TGI with NCI-H522 lung, in the test on RXF 393 renal and with SK-MEL-2 melanoma were 65.8 µM, 80.6 µM and 33.1 µM, respectively.

For `Cc1nc(NC(=O)CCCN2C(=O)c3cccc4cccc(c34)C2=O)sc1C(=O)Nc1cc(C(=O)NCCCN(C)C)n(C)c1`, the GI50 with COLO 205 colon, in the test with HCC-2998 colon, with HOP-62 NSCLC, in the test with MALME-3M melanoma, in the test with NCI-H226 lung and in the test with NCI-H522 lung was over 100 µM throughout. The GI50 in the test on SK-MEL-2 melanoma and in the test with SR leukemia was over 100 µM each time. Moreover, the TGI in the test on COLO 205 colon, in the test on HCC-2998 colon, in the test on HOP-62 NSCLC, with MALME-3M melanoma, in the test with NCI-H226 lung and in the test with NCI-H522 lung was over 100 µM in each case. In addition, the TGI in the test on SK-MEL-2 melanoma and in the test on SR leukemia was over 100 µM throughout.

Turning to `COc1ccc2c(c1)OC[C@@H]1c3cc4c(cc3O[C@H]21)OCO4`, the TGI with CCRF-CEM leukemia, in the test on COLO 205 colon, in the test on HCC-2998 colon, with HOP-62 NSCLC, in the test on MALME-3M melanoma and in the test on NCI-H226 lung was over 100 µM each time. Besides, the TGI in the test on NCI-H522 lung, in the test with RXF 393 renal and with SK-MEL-2 melanoma was over 100 µM throughout.

Regarding `COc1ccc2nc3ccccc3c(NCCCCCCN(C)CCCl)c2c1`, the TGI was 0.348 µM in the test on CCRF-CEM leukemia; 1.52 µM with COLO 205 colon; 1.98 µM in the test on HCC-2998 colon; 3.03 µM in the test on HOP-62 NSCLC; 2.06 µM in the test with MALME-3M melanoma; 1.55 µM in the test with NCI-H226 lung. Besides, the TGI amounted to 1.58 µM in the test on NCI-H522 lung, 1.23 µM with RXF 393 renal and 1.81 µM in the test on SK-MEL-2 melanoma.

Turning to `Cc1ccccc1CN1CC=c2ccccc2=N1`, the TGI in the test with CCRF-CEM leukemia, in the test on COLO 205 colon, in the test on HCC-2998 colon, with HOP-62 NSCLC, with MALME-3M melanoma and with NCI-H226 lung was over 100 µM each time. Further, the TGI with SK-MEL-2 melanoma was over 100 µM.

For the molecule `Nc1ccc(/C=N/Nc2ccnc3c(N)cccc23)c2cccnc12`, the GI50 in the test on CCRF-CEM leukemia was 0.316 µM; with COLO 205 colon, 1.78 µM; with HCC-2998 colon it was 1.81 µM; in the test with HOP-62 NSCLC, 1.81 µM; in the test with NCI-H226 lung, 4.12 µM; with NCI-H522 lung it was 1.84 µM. In addition, the GI50 with SK-MEL-2 melanoma was 1.7 µM; with SR leukemia, 0.0336 µM. The TGI in the test on CCRF-CEM leukemia amounted to 2.31 µM; in the test on COLO 205 colon, 3.46 µM; with HCC-2998 colon it was 3.3 µM; in the test with HOP-62 NSCLC, 3.53 µM; in the test on NCI-H226 lung it was 20.8 µM; in the test with NCI-H522 lung, 3.62 µM. The TGI with SK-MEL-2 melanoma was determined as 3.25 µM; in the test with SR leukemia, 0.153 µM.

`CCOC(=O)c1cn(Cc2ccccc2)c(=O)n1Cc1ccccc1`: the TGI in the test with CCRF-CEM leukemia, with COLO 205 colon, with HCC-2998 colon, with HOP-62 NSCLC, in the test on MALME-3M melanoma and in the test on NCI-H226 lung was over 100 µM in each case. The TGI in the test with NCI-H522 lung, in the test with RXF 393 renal and in the test with SK-MEL-2 melanoma was over 100 µM throughout.

In the case of `COC(=O)C1=C(CO)C2C=CC1C2` (centres undefined), the TGI in the test on CCRF-CEM leukemia, in the test on COLO 205 colon, in the test on HCC-2998 colon, in the test with HOP-62 NSCLC, in the test with MALME-3M melanoma and in the test with NCI-H226 lung was over 100 µM throughout. Further, the TGI in the test with NCI-H522 lung, in the test on RXF 393 renal and in the test on SK-MEL-2 melanoma was over 100 µM throughout.
